How the values were obtained:
[1] = target: SRPK1 (Homo sapiens, UniProt Q96SB4); assay: KINOMEscan: SRPK1; format: binding; conditions: 100 nM, read-out: Percent Control
[2] = target: MEK5 (Homo sapiens, UniProt Q13163); assay: KINOMEscan: MEK5; format: binding; conditions: 1000 nM, read-out: Percent Control
[3] = target: MEK2 (Homo sapiens, UniProt P36507); assay: KINOMEscan: MEK2; format: binding; conditions: 1000 nM, read-out: Percent Control
[4] = target: CAMK1 (Homo sapiens, UniProt Q14012); assay: KINOMEscan: CAMK1; format: binding; conditions: 1000 nM, read-out: Percent Control
[5] = target: FLT3(ITD,D835V) (Homo sapiens, UniProt P36888, D835V/ITD); assay: biochemical; set-up: DiscoverX KINOMEscan kinase panel, per cent of control (100 = no effect), single concentrations; conditions: per cent of control, KINOMEscan; read-out: Percent Control
Procedure: (§1) The structure and synthesis of VIP152 were recently described by Lücking et al.. (Fig. 1A); however, the selectivity of the molecule in cellular systems has yet to be explored. […] We also performed this experiment at 1000 nM, where CDK9 was inhibited at 99%. […] We found a strong concordance between our data and those of Lücking when comparing the most inhibited kinases. Potential off-target effects of VIP152 were next tested in vitro at a concentration of 10 µM for off-target activity against a broad range of receptors, transporters, ion channels, and enzymes (n = 138) using the Eurofins Diversity Panel. […] A Chemical structure of VIP152.

[6] = target: FLT3(ITD) (Homo sapiens, UniProt P36888, ITD); assay: biochemical; set-up: DiscoverX KINOMEscan kinase panel, per cent of control (100 = no effect), single concentrations; conditions: per cent of control, KINOMEscan; read-out: Percent Control
Procedure: as §1

[7] = target: EGFR(L747-T751del,Sins) (Homo sapiens, UniProt P00533, DEL747-750/T751S); assay: biochemical; set-up: DiscoverX KINOMEscan kinase panel, per cent of control (100 = no effect), single concentrations; conditions: per cent of control, KINOMEscan; read-out: Percent Control
Procedure: as §1

[8] = target: EGFR(L747-S752del, P753S) (Homo sapiens, UniProt P00533, DEL747-752/P753S); assay: biochemical; set-up: DiscoverX KINOMEscan kinase panel, per cent of control (100 = no effect), single concentrations; conditions: per cent of control, KINOMEscan; read-out: Percent Control
Procedure: as §1

[9] = target: EGFR(L747-E749del, A750P) (Homo sapiens, UniProt P00533, A750P/DEL747-749); assay: biochemical; set-up: DiscoverX KINOMEscan kinase panel, per cent of control (100 = no effect), single concentrations; conditions: per cent of control, KINOMEscan; read-out: Percent Control
Procedure: as §1

[10] = target: CASK (Homo sapiens, UniProt O14936); assay: KINOMEscan: CASK; format: binding; conditions: 1000 nM, read-out: Percent Control
[11] = target: RET(M918T) (Homo sapiens, UniProt P07949, M918T); assay: KINOMEscan: RET(M918T); format: binding; conditions: 100 nM, read-out: Percent Control
[12] = target: RET (Homo sapiens, UniProt P07949); assay: KINOMEscan: RET; format: binding; conditions: 100 nM, read-out: Percent Control
[13] = target: TYK2(JH2domain-pseudokinase) (Homo sapiens, UniProt P29597); assay: KINOMEscan: TYK2(JH2domain-pseudokinase); format: binding; conditions: 100 nM, read-out: Percent Control
[14] = target: CSNK1G2 (Homo sapiens, UniProt P78368); assay: KINOMEscan: CSNK1G2; format: binding; conditions: 1000 nM, read-out: Percent Control
[15] = target: ACVR2B (Homo sapiens, UniProt Q13705); assay: KINOMEscan: ACVR2B; format: binding; conditions: 1000 nM, read-out: Percent Control
[16] = target: ERBB2 (Homo sapiens, UniProt P04626); assay: KINOMEscan: ERBB2; format: binding
Procedure: The structure and synthesis of VIP152 were recently described by Lücking et al.. (Fig. 1A); however, the selectivity of the molecule in cellular systems has yet to be explored. […] We also performed this experiment at 1000 nM, where CDK9 was inhibited at 99%. […] We found a strong concordance between our data and those of Lücking when comparing the most inhibited kinases. Potential off-target effects of VIP152 were next tested in vitro at a concentration of 10 µM for off-target activity against a broad range of receptors, transporters, ion channels, and enzymes (n = 138) using the Eurofins Diversity Panel.
Kinomescan Kinase Profiling Assay
Kinomescan Assay was performed at DiscoverRX and described in Fabian, et al. 2005, Nat.
Biotechnol. In brief, kinases were produced and subsequently tagged with DNA for qPCR detection.
Streptavidin-coated magnetic beads were bound to biotinylated kinase ligands to serve as a solid support.
VIP152 was dissolved in DMSO and tested across a 10 serial threefold dilution set and compared to a test compound and a DMSO control. Kinases which were inhibited by VIP152 would not be bound to the solid-support resulting in decreased substrate for the qPCR reaction. Kinome map was produced via TreeSpot Analysis from DiscoverRX. […]
NanoBRETTM Target Engagement Assay Protocol […]
HEK293 cells were grown to 70-80% confluence appropriately prior to assay and subsequently trypsinized. Lipid:DNA complexes were prepared as follows. A 10µg/mL solution of DNA in Opti-MEM without serum consisting of the following ratios of carrier DNA and DNA encoding NanoLuc fusion were prepared.
9.0µg/mL of Transfection Carrier DNA, 1.0µg/mL of NanoLuc fusion vector DNA, and 1mL of Opti-MEM without phenol red. The solution was mixed thoroughly. Next, 30µL of FuGENE HD Transfection Reagent was added into each mL of DNA mixture to form the lipid:DNA complex and mixed by inversion 10 times followed by a 20 minute incubation at room temperature. […]

[17] = target: LATS2 (Homo sapiens, UniProt Q9NRM7); assay: KINOMEscan: LATS2; format: binding; conditions: 1000 nM, read-out: Percent Control

Chain of ERBB2 (P04626 23-1255): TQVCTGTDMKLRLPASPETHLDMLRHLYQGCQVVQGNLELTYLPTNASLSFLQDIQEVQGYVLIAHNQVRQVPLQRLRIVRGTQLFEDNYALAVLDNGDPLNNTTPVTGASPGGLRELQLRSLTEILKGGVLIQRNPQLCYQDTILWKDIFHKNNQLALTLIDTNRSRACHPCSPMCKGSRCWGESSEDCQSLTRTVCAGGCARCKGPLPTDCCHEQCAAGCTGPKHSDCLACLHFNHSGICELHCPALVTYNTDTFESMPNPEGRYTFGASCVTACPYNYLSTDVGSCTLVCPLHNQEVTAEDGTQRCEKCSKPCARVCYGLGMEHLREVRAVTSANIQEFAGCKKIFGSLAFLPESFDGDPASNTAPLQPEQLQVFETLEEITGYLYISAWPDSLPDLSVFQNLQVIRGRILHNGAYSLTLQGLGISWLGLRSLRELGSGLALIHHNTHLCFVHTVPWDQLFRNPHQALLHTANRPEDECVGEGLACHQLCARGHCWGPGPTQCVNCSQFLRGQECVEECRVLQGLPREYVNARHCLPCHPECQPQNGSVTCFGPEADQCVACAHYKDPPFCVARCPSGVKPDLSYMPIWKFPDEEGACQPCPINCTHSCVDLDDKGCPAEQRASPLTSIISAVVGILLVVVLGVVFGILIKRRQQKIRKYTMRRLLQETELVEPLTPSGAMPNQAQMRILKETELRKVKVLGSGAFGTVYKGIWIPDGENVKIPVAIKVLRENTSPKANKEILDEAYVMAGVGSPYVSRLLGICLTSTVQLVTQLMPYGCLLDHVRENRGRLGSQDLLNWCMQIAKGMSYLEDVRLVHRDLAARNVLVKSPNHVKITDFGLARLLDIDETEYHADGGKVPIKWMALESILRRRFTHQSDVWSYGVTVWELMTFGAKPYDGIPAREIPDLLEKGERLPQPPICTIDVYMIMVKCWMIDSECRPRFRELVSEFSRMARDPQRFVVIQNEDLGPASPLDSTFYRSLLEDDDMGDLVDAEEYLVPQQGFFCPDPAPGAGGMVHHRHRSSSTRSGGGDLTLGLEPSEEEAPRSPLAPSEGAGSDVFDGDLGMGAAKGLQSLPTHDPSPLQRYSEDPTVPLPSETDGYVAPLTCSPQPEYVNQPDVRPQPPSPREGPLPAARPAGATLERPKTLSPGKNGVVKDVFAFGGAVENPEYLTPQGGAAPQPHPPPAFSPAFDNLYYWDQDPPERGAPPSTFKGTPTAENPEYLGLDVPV
Chain of EGFR(L747-S752del, P753S) (P00533 with tags, fused parts or gaps DEL747-752/P753S): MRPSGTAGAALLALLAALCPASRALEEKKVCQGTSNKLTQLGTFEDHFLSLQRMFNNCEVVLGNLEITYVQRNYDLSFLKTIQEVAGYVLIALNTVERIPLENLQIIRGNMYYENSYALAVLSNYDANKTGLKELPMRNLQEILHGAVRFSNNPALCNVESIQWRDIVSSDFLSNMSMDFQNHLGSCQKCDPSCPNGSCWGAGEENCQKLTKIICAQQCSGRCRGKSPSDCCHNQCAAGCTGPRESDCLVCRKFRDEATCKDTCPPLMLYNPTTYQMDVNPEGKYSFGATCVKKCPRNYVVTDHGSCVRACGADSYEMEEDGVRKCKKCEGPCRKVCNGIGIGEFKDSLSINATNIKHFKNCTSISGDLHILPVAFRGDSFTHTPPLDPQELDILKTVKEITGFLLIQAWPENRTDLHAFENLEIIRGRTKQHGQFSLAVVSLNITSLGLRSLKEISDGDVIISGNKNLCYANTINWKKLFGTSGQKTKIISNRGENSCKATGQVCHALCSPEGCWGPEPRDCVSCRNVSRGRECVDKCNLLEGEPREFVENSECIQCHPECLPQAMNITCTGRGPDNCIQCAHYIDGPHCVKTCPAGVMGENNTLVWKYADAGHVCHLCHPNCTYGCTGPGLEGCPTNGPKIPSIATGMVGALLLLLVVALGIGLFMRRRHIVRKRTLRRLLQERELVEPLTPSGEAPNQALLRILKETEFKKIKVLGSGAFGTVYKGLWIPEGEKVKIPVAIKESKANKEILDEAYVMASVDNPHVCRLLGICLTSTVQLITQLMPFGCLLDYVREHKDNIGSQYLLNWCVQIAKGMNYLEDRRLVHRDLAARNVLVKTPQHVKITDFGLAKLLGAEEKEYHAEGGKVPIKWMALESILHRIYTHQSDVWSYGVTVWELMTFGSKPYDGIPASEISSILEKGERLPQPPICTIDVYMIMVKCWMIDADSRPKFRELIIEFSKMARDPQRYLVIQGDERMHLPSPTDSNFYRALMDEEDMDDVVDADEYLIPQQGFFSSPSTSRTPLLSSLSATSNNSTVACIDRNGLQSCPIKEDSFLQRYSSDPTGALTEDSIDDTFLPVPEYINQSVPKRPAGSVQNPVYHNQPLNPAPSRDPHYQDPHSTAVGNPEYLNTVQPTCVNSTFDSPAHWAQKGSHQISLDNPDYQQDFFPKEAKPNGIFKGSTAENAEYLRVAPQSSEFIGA
Chain of MEK2 (P36507 whole entry): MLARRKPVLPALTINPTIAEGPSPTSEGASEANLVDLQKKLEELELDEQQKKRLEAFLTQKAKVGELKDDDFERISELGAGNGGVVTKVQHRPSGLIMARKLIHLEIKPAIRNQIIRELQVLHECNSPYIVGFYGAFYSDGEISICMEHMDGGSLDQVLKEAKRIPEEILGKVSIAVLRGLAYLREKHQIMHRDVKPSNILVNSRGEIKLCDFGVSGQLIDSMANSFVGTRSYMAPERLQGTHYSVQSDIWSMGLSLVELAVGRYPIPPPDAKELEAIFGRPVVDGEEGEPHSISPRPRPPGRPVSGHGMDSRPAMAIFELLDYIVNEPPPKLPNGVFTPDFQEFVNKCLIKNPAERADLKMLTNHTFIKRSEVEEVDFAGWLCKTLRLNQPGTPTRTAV
Chain of CASK (O14936 whole entry): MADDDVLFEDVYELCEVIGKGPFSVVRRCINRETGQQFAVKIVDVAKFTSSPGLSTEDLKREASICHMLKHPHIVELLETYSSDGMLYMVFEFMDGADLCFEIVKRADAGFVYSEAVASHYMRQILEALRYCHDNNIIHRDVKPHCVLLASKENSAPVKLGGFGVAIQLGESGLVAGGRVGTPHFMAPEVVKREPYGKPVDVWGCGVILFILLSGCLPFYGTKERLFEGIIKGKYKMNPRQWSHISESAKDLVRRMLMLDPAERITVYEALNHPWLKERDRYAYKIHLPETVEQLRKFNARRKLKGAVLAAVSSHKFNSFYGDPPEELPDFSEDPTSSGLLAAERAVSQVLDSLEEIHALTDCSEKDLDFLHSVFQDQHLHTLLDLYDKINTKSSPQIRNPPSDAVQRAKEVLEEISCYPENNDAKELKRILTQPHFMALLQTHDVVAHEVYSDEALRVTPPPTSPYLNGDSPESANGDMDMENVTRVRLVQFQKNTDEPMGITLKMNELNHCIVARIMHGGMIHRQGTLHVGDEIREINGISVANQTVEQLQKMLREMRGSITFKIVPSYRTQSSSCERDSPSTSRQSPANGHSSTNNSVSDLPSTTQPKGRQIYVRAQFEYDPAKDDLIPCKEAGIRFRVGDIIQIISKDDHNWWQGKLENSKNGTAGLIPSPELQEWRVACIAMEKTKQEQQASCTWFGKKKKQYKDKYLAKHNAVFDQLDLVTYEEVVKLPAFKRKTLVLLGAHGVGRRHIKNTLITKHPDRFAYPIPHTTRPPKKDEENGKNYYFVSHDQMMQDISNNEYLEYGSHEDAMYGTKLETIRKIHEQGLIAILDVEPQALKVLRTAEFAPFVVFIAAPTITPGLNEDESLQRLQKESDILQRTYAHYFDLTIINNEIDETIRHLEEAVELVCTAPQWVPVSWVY
Chain of RET (P07949 29-1114): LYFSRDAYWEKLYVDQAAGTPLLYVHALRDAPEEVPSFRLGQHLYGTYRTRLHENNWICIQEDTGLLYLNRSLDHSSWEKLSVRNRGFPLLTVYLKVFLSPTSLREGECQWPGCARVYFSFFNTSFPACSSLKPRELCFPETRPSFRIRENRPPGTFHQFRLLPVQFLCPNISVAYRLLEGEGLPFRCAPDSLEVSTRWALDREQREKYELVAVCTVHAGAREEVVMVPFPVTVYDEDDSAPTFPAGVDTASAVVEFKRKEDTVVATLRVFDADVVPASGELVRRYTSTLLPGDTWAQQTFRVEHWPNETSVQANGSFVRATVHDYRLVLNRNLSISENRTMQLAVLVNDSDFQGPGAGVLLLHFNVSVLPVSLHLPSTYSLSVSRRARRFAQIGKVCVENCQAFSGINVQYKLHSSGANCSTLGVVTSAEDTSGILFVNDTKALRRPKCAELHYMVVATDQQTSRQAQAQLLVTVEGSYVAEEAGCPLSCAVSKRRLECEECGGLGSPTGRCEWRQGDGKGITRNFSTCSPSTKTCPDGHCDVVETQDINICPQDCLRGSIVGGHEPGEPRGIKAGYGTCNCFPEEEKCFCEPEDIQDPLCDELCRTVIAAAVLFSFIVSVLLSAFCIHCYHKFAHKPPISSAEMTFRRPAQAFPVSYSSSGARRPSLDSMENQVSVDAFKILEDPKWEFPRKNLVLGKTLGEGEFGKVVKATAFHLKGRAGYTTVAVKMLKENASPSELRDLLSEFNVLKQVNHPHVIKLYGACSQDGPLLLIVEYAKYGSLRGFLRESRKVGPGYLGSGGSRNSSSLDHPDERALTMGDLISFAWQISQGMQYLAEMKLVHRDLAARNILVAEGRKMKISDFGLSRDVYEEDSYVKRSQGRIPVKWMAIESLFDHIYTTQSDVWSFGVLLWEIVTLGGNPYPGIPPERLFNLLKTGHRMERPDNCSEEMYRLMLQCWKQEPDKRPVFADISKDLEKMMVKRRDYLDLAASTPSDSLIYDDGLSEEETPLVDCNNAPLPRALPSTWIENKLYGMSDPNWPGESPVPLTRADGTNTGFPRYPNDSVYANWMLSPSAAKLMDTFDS
Chain of RET(M918T) (P07949 29-1114 M918T): as the sequence (P07949 29-1114) above, with M890T counted along it

For `COc1cc(F)ccc1-c1cc(Nc2cc(CS(C)(=N)=O)ccn2)ncc1F` (stereo not shown) [VIP152], the remaining binding at 0.1 µM [1] was 100%, the remaining binding at 1 µM [2] was 52% and the remaining binding at 1 µM [3] was 88%. The remaining binding at 1 µM [4] was 78%, the remaining binding at 0.1 µM [5] was 100% and the remaining binding at 0.1 µM [6] was 100%. For the same molecule, the remaining binding at 0.1 µM [7] was 100%, the remaining binding at 0.1 µM [8] was 93% and the remaining binding at 0.1 µM [9] was 100%. It also gave a remaining binding at 1 µM [10] of 95%, a remaining binding at 0.1 µM [11] of 100% and a remaining binding at 0.1 µM [12] of 100%. It also gave a remaining binding at 0.1 µM [13] of 100%, a remaining binding at 1 µM [14] of 93% and a remaining binding at 1 µM [15] of 65%. It also gave an inhibition at 0.1 µM ([16]; 100 nM, read-out: inhibition of ERBB2 relative to control) of 65%, a remaining binding at 0.1 µM ([16]; ERBB2, 100 nM, read-out: Percent Control) of 35% and a remaining binding at 1 µM ([16]; ERBB2, 1000 nM, read-out: Percent Control) of 100%. The remaining binding at 1 µM [17] was 97%.

— paper PMC9898036, “VIP152 is a selective CDK9 inhibitor with pre-clinical in vitro and in vivo efficacy in chronic lymphocytic leukemia” (Leukemia, 2022)
